From patent US7015239B2, “Fungicide for plants” (Valent BioSciences, Inc., priority 2003, dated 2006)

Key:
Botrytis cinerea [1] = test: Detached bean leaf bioassay, fungal control; type: in vivo; settings: three days after inoculation, 100 minus percent necrotic area
Description: (§1) Detached Bean Leaf Bioassay
(§2) Compound solution: Compound solutions were prepared by diluting compound stock solutions (1.0% w/v compound in DMSO) to 200 ppm with 0.01% w/v Triton X-100.
Spore solution preparation: Botrytis cinerea spores were taken from 6-week-old cultures grown at 22 C on full strength potato dextrous agar (PDA) plates and harvested in 1:16 frozen orange juice concentrate:water. Botrytis cinerea spore solutions were prepared by diluting spore cultures to 5×10^4 spores/mL with 1:16 frozen orange juice concentrate:water.
(§3) Plant material: Middle trifoliate leaves of greenhouse grown Phaseolus vulgaris (Bush bean cv. Blue Lake 274) were excised and placed on a plastic grid above a tray containing moist towels.
Treatment method: One half of the adaxial surface of the leaf was treated with the compound solution (100:L) using a 3 cm Bacti Cell Spreader. A blank consisted of 0.01% w/v Triton X-100. A commercial fungicide control (200 ppm diluted with water) consisted of Scala. […]
Fungal control rating: Three days after inoculation with Botrytis, the percent necrotic area under the inoculation droplet was determined. Since the areas under the blank (0.01% w/v Triton X-100) were 100% infected, fungal control was expressed as 100 minus the percent necrotic area, and thus 0% infected is 100% fungal control (n=3 leaves/compound, 5 inoculation droplets/leaf, Table 2).

[2] = test system: Phaseolus vulgaris (Bush bean cv. Blue Lake 274) leaves; test: Detached bean leaf bioassay, phytotoxicity rating; type: in vivo
Description: as §1, §2, §3
Treatment method: One half of the adaxial surface of the leaf was treated with the compound solution (100:L) using a 3 cm Bacti Cell Spreader. A blank consisted of 0.01% w/v Triton X-100. A commercial fungicide control (200 ppm diluted with water) consisted of Scala. After the solutions dried, the trays containing the leaves were covered and held one day in a growth chamber (22 C). The adaxial surfaces of the leaves were then inoculated with 5–60:L droplets of Botrytis cinerea spore solution.
Phytotoxicity ratings: Phytotoxicity was rated as 0=no phytotoxicity, l=slight phytotoxicity, 2=moderate phytotoxicity, or 3=excessive phytotoxicity (Table 2).

Monilinia laxa = test: Contact evaluation (microtiter plate); type: cell-based
Description: (§4) Compound solution: Contact evaluations were conducted to determine the anti-fungal activity of each compound against Botrytis cinerea, Sclerotinia sclerotiorum, Pythium aphanidermatum, Rhizoctonia solani, Cercospora arachidicola, Mycosphaerella fijiensis, and Monilinia laxa. Five milligrams of each compound were dissolved in 0.5 milliliter of DMSO for a compound stock solution of 1.0% w/v. Compound stock solutions were serial diluted with DMSO to 20, 10, and 2 ppm final well concentration.
(§5) Fungi preparation: Botrytis cinerea spores were taken from 6-week-old cultures grown at 22C on full strength potato dextrous agar (PDA) plates. Sclerotinia sclerotiorum, Pythium aphanidermatum, Rhizoctonia solani, and Monilinia laxa mycelia were taken from 4- to 10-day-old shake flask cultures grown at room temperature on full strength potato dextrous broth (PDB). Cercospora arachidicola mycelia were taken from 10- to 14-day-old shake flask cultures grown at room temperature on a full strength PDB amended with peanut oil. Mycosphaerella fijiensis mycelia were taken from 10- to 14-day-old shake flask cultures grown at room temperature on V8 juice broth. Sclerotinia sclerotiorum, Pythium aphanidermatum, Rhizoctonia solani, Cercospora arachidicola, and Mycosphaerella fijiensis mycelia (0.4 g mycelia) were blended for 45 seconds in 20 mL sterile de-ionized water. Monilinia laxa mycelia (1 g mycelia) was blended for 45 seconds in 30 mL of sterile de-ionized water. Botrytis cinerea spores were diluted with quarter strength PDB to 1×10^5 spores/mL final well concentration. All mycelia were diluted in water (1:5 mycelia:water) before distributing into the wells.
(§6) Microtiter plate preparation: Compound solution (10:L), quarter strength PDB (900:L) and fungi preparation (100:L) were sequentially distributed into 48-well microtiter plates (n=3 replications/compound/rate). A blank consisted of quarter strength PDB and fungi preparation. Commercial fungicide controls (100 ppm diluted with water) consisted of Scala for Botrytis cinerea, Dithane F-45 for Mycosphaerella fijiensis, and Benlate for Sclerotinia sclerotiorum, Pythium aphanidermatum, Rhizoctonia solani, Cercospora arachidicola, and Monilinia laxa. Plates were shaken in a circular rotator at room temperature for 20 minutes, then incubated at 25 C for 24 to 72 hours, depending on the pathogen.
(§7) Fungal control ratings: Fungal growth in wells containing the compounds were compared to the positive control and fungal inhibition was rated as full, partial, or none. Final readings were the average of the three wells (Table 1).

Sclerotinia sclerotiorum = test: Contact evaluation (microtiter plate); type: cell-based; settings: Sclerotinia sclerotionum
Description: as §4, §5, §6, §7

Mycosphaerella fijiensis = test: Contact evaluation (microtiter plate); type: cell-based
Description: as §4, §5, §6, §7

Botrytis cinerea [3] = test: Contact evaluation (microtiter plate); type: cell-based
Description: as §4, §5, §6, §7

Pythium aphanidermatum = test: Contact evaluation (microtiter plate); type: cell-based
Description: as §4, §5, §6, §7

Rhizoctonia solani = test: Contact evaluation (microtiter plate); type: cell-based; settings: Rhizoctinia solani
Description: as §4, §5, §6, §7

Cercospora arachidicola = test: Contact evaluation (microtiter plate); type: cell-based
Description: as §4, §5, §6, §7

## Cc1ccc(-c2cc(-c3ccc(C)cc3)[n+](-c3ccccc3)c(-c3cccc(C)c3)c2)cc1.[O-][Cl+3]([O-])([O-])O [formula I]
Botrytis cinerea [1]
  Botrytis cinerea control (200 ppm): 93%
[2]
  Phytotoxity (200 ppm): Slight
Monilinia laxa; fungicide rate 2 ppm
  Control of fungi (full, partial, none): Full
Monilinia laxa; fungicide rate 10 ppm
  Control of fungi (full, partial, none): Full
Monilinia laxa; fungicide rate 20 ppm
  Control of fungi (full, partial, none): Full
Sclerotinia sclerotiorum; fungicide rate 2 ppm
  Control of fungi (full, partial, none): Full
Sclerotinia sclerotiorum; fungicide rate 10 ppm
  Control of fungi (full, partial, none): Full
Sclerotinia sclerotiorum; fungicide rate 20 ppm
  Control of fungi (full, partial, none): Full
Mycosphaerella fijiensis; fungicide rate 2 ppm
  Control of fungi (full, partial, none): Full
Mycosphaerella fijiensis; fungicide rate 10 ppm
  Control of fungi (full, partial, none): Full
Mycosphaerella fijiensis; fungicide rate 20 ppm
  Control of fungi (full, partial, none): Full
Botrytis cinerea [3]; fungicide rate 2 ppm
  Control of fungi (full, partial, none): Partial
Botrytis cinerea [3]; fungicide rate 10 ppm
  Control of fungi (full, partial, none): Full
Botrytis cinerea [3]; fungicide rate 20 ppm
  Control of fungi (full, partial, none): Full
Pythium aphanidermatum; fungicide rate 2 ppm
  Control of fungi (full, partial, none): Full
Pythium aphanidermatum; fungicide rate 10 ppm
  Control of fungi (full, partial, none): Full
Pythium aphanidermatum; fungicide rate 20 ppm
  Control of fungi (full, partial, none): Full
Rhizoctonia solani; fungicide rate 2 ppm
  Control of fungi (full, partial, none): None
Rhizoctonia solani; fungicide rate 10 ppm
  Control of fungi (full, partial, none): Full
Rhizoctonia solani; fungicide rate 20 ppm
  Control of fungi (full, partial, none): Full
Cercospora arachidicola; fungicide rate 2 ppm
  Control of fungi (full, partial, none): None
Cercospora arachidicola; fungicide rate 10 ppm
  Control of fungi (full, partial, none): Full
Cercospora arachidicola; fungicide rate 20 ppm
  Control of fungi (full, partial, none): Full
